Reference: patent US20100292316A1, “IMPROVED THERAPEUTIC METHODS AND COMPOSITIONS COMPRISING CHROMAN RING COMPOUNDS” (Research Development Foundation, priority 2007, published 2010)

System: MDA-MB-435 human breast cancer cells
Assay: DNA microarray gene expression after α-TEA treatment
Type: cell-based
Design: scale not given here
Conditions: MDA-MB-435, 40 μM, 12 h
Procedure: In order to identify genes that are involved in α-TEA induced apoptosis in cancer cells the gene expression levels in MDA-MB-435 human breast cancer cells were analyzed after treatment with α-TEA. The MDA-MB-435 cell line is an estrogen-receptor negative/estrogen-nonresponsive epithelial cell line isolated from the pleural effusions of a human with breast cancer (Price et al., 1990). DNA microarray data obtained from treatment of MDA-MB-435 cells with 40 μM α-TEA for 12 h identified approximately 400 genes that gave consistent responses to α-TEA treatment. Genes that passed a minimum quality control threshold were analyzed using online software (The Database for Annotation, Visualization and Integrated Discovery (DAVID)).
MDA-MB-435 cells were cultured in MEM with Earle's balanced salts (Life Technologies, Inc., Grand Island, N.Y.) supplemented with 5% FBS (Hyclone Laboratories, Logan, Utah) plus 2 mM glutamine, 100 μg/ml streptomycin, 100 IU/ml penicillin, 1×(v/v) nonessential amino acids, 2×(v/v) MEM vitamins, and 1 mM sodium pyruvate (Sigma).
Messenger RNA was isolated from the treated MDA-MB-435 cells (3×150 mm dishes) using the FastTrack 2.0 kit (Invitrogen) according to the manufacturer's instructions. First, 15 ml of lysis buffer was added into the cell pellets and mixed thoroughly. The cell lysates were incubated in 45° C. for 45 min with intermittent inversion. Then, 950 μl of 5 M NaCl stock solution was added and mixed thoroughly. Any remaining DNA was sheared by passing the lysates 3 times through a sterile plastic syringe fitted with a 21 gauge needle. Next, the calculated amount of oligo-dT cellulose was added to each sample and allowed to swell for 2 minutes. The tube was rocked gently in a horizontal position for 60-90 minutes at room temperature. The oligo-dT slurry was centrifuged at 4000 rpm for 5 minutes at room temperature, the supernatant was carefully removed from the resin bed. The oligo-dT cellulose was then resuspended in 20 ml of Binding Buffer by vortexing and centrifuged at 4000 rpm for 5 minutes at room temperature, the binding buffer was removed from the resin bed; this step was repeated with 10 ml of binding buffer. The oligo-dT cellulose was washed three times in 10 ml of Low Salt Wash Buffer and centrifuged. The resulting oligo-dT cellulose was resuspended in 800 μl of Low Salt Wash Buffer using a 1 ml pipette tip with a cut-end and quickly transferred to a spin column seated in a microcentrifuge tube. The column was centrifuged at 1000 rcf (about 3000 rpm on a typical microcentrifuge) for 10 seconds at room temperature and the flow-through liquid was discarded. The transfer and centrifugation steps were repeated until all of the oligo-dT cellulose was in the spin column. Then, the spin column containing the oligo-dT cellulose was placed into a clean microcentrifuge tube. The oligo-dT cellulose was resuspended in 200 μl of preheated Elution Buffer (65° C.) using a 200 μl cut-end pipette tip to gently swirl the cellulose, without puncturing the underlying spin column membrane. The column was allowed to stand for 2 minutes at room temperature and then centrifuged at 1000 rcf for 30 seconds at room temperature. This step was repeated with 200 μl of heated Elution Buffer. Then, 40 μl of 3 M sodium acetate and 1 ml of 95% ethanol were added into the combined 400 μl eluent which contained the mRNA and mixed thoroughly. The mRNA mixture was stored at −80° C. overnight. Thenext day, the mixture was thawed and centrifuged at 14,000 rpm in a microcentrifuge for 15 minutes at 4° C., the ethanol was then carefully removed from the mRNA pellet. The mRNA was washed with 70% ethanol once more and resuspended in 20 μl of Elution Buffer (heated as before). […]

## Cc1c(C)c2c(c(C)c1OCC(=O)O)CC[C@@](C)(CCC[C@H](C)CCC[C@H](C)CCCC(C)C)O2 [α-TEA]
Clone IMAGE: 5311129, mRNA, AI362218
  Average level: −0.8568
EST, AI201652
  Average level: −0.7242
Homo sapiens transcribed sequence with strong similarity to protein pdb: 1BGM, AA779865
  Average level: −0.735
Homo sapiens transcribed sequences, R55747
  Average level: −0.756
MRNA full length insert cDNA clone EUROIMAGE 200999, N54993
  Average level: −0.698
Transcribed sequences, H99855
  Average level: −0.8377
Gene AGPAT3, R61733
  Average level: −0.743
Gene AGTRAP, AA152101
  Average level: −0.574
Gene AKR1C2, AI924357
  Average level: −0.865
Gene AMD1, R82299
  Average level: −0.758
Gene ATOX1, AA418755
  Average level: −0.898
Gene ATP5G1, AA046701
  Average level: −0.6558
Gene BAT3, AA598629
  Average level: −0.5502
Gene BST2, AA485371
  Average level: −0.5935
Gene C7orf38, AA452899
  Average level: −0.6558
Gene C9orf58, H48148
  Average level: −0.5662
Gene C13orf8, AA463267
  Average level: −0.6892
Gene C14orf24, AA035549
  Average level: −0.6602
Gene C16orf34, AA045658
  Average level: −0.7252
Gene CDCA2, AI248208
  Average level: −0.719
Gene CHD9, R81880
  Average level: −0.6642
Gene CLCN3, H69811
  Average level: −0.6208
Gene COX7B, AA629999
  Average level: −0.8798
Gene CRABP1, AA421218
  Average level: −0.7923
Gene CRTAP, AA490280
  Average level: −0.7943
Gene CTNNB1, AW058504
  Average level: −0.59
Gene CUGBP2, AA047257
  Average level: −0.8218
Gene CXXC5, R63735
  Average level: −0.8002
Gene D4ST1, AA922082
  Average level: −0.6567
Gene DAG1, AA496691
  Average level: −0.8377
Gene DCT, N27147
  Average level: −0.8518
Gene DEPDC6, AA621364
  Average level: −0.93
Gene DHCR24, AA482324
  Average level: −0.8912
Gene DPY19L2, AA134696
  Average level: −0.7558
Gene EPHB2, W72792
  Average level: −0.6663
Gene ERBB3, AA664212
  Average level: −0.864
Gene ETFB, AI364521
  Average level: −0.6326
Gene FAM83D, R96941
  Average level: −0.5566
Gene FBXL13, AA676859
  Average level: −0.8802
Gene FLJ12973, AI220472
  Average level: −0.7147
Gene FLJ21901, AI392678
  Average level: −0.8782
Gene FZD4, AA677200
  Average level: −0.765
Gene GFER, AA465021
  Average level: −0.5873
Gene GGH, AA455800
  Average level: −0.8048
Gene GNG2, N26108
  Average level: −0.9006
Gene HBS1L, AI003293
  Average level: −0.6832
Gene HNRPM, AA504272
  Average level: −0.6512
Gene HSBP1, AA481263
  Average level: −0.735
Gene IFT122, R97234
  Average level: −0.585
Gene ITGB8, AI246160
  Average level: −0.7288
Gene KIAA0664, AI363909
  Average level: −0.8538
Gene LGALS13, AA706870
  Average level: −0.8452
Gene LOC151162, H79970
  Average level: −0.6815
Gene LOC286334, AA425105
  Average level: −0.8562
Gene LRRK2, AA283609
  Average level: −0.8566
Gene LTBP3, R60197
  Average level: −0.6094
Gene MAF1, AA598994
  Average level: −0.8305
Gene MAN1A2, R22905
  Average level: −0.8387
Gene MGA, AA011551
  Average level: −0.74
Gene MGC4692, AA455039
  Average level: −0.7943
Gene MLANA, N26562
  Average level: −0.551
Gene MVK, R06716
  Average level: −0.673
Gene MYEF2, H96671
  Average level: −0.6864
Gene MYO5A, H20809
  Average level: −0.6754
Gene NETO2, AA456821
  Average level: −0.6854
Gene NOV, AW008840
  Average level: −0.7034
Gene NQO1, AA455538
  Average level: −0.8166
Gene NUPL1, AA158352
  Average level: −0.8132
Gene NUPL2, R96358
  Average level: −0.7312
Gene NUSAP1, AA620485
  Average level: −0.617
Gene OVOS2, AA600184
  Average level: −0.9275
Gene PCDHB16, AI218958
  Average level: −0.7648
Gene PFKFB2, R16146
  Average level: −0.6214
Gene PLEKHF2, AA886792
  Average level: −0.8846
Gene SCD, R00707
  Average level: −0.8732
Gene SFRS2, AA454585
  Average level: −0.7076
Gene SGCD, AA479286
  Average level: −0.8855
Gene SLC26A2, AA704222
  Average level: −0.9114
Gene SLC44A1, R59173
  Average level: −0.6684
Gene SLC44A1, T61913
  Average level: −0.6626
Gene SNX12, AA629796
  Average level: −0.611
Gene SOS1, H64324
  Average level: −0.6138
Gene STARD7, R37351
  Average level: −0.7862
Gene TBC1D1, R32437
  Average level: −0.8948
Gene TBC1D16, AI431804
  Average level: −0.9208
Gene TMPO, H21943
  Average level: −0.7848
Gene TMPO, T63980
  Average level: −0.7846
Gene TNFRSF21, AA490494
  Average level: −0.8622
Gene TNS3, T74023
  Average level: −0.8212
Gene TOP2A, AA504348
  Average level: −0.7142
Gene TREX1, AA279658
  Average level: −0.861
Gene TRIM2, AA464935
  Average level: −0.922
Gene TSHZ1, AA426522
  Average level: −0.865
Gene TWSG1, N91767
  Average level: −0.6
Gene USP40, H29211
  Average level: −0.8932
Gene VAV3, H10045
  Average level: −0.9075
Gene VPRBP, AA644335
  Average level: −0.702
Gene VPS13D, AI005042
  Average level: −0.7177
Gene WASPIP, AA283699
  Average level: −0.8604
Gene ZNF291, AA001504
  Average level: −0.6362
